Earlier results on 1 compound are cited in patent US12440455B2, “Methods of administering cannabinoids” (IMPACT NATURALS, INC., priority 2022, dated 2025).

The structures appear in SMILES notation.

One series has as its target CB2 (Homo sapiens, UniProt P34972). The conditions noted are these: WHO assessment.
A further series has as its system SARS-CoV-2. To be noted: Nguyen et al., Sci. Adv. 8, eabi6110 (2022).

Chain of CB2 (P34972 whole entry, species assumed): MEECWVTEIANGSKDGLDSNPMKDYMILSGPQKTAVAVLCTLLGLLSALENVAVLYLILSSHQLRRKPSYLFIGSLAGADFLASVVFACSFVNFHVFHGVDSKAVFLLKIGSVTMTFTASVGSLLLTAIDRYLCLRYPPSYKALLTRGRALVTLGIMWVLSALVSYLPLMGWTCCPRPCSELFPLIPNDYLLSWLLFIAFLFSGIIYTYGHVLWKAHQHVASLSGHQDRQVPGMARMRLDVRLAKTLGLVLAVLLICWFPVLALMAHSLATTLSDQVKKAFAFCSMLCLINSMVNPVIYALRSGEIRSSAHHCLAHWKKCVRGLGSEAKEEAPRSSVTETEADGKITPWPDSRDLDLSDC

With `C=C(C)[C@@H]1CCC(C)=C[C@H]1c1c(O)cc(CCCCC)cc1O` [Cannabidiol], the aqueous solubility entry is listed as “approximately 0.013 milligrams per milliliter”. Further, the “affinity to CB2” value on CB2 is “low affinity”. Besides, the “inhibition of SARS-CoV-2 replication” value in the series on SARS-CoV-2 is recorded as “inhibit SARS-CoV-2 replication”.
